O=C(N[C@H](C(=O)O)c1ccccc1)OCc1ccccc1
solubility (mole fraction)
Details | 283.15 K | 288.15 K | 293.15 K | 298.15 K | 303.15 K | 313.15 K | 323.15 K
in 2-butanone | 0.0446 | – | 0.0596 | – | 0.0762 | 0.0957 | 0.111
in acetone | 0.0605 | – | 0.0786 | – | 0.1 | 0.129 | 0.159
in acetonitrile | 0.0067 | – | 0.00966 | – | 0.0143 | 0.0253 | 0.053
in dichloromethane | 0.00624 | 0.00703 | 0.00874 | 0.0112 | 0.0149 | – | –
in ethanol | 0.0235 | – | 0.0354 | – | 0.0581 | 0.0922 | 0.141
in ethyl acetate | 0.0209 | – | 0.0274 | – | 0.0371 | 0.0549 | 0.073
in isopropanol | 0.0107 | – | 0.0175 | – | 0.0328 | 0.0604 | 0.105
in methanol | 0.0325 | – | 0.0479 | – | 0.0794 | 0.111 | 0.146
in methyl acetate | 0.028 | – | 0.0399 | – | 0.0541 | 0.0739 | 0.0918
in n-propanol | 0.0141 | – | 0.0231 | – | 0.039 | 0.068 | 0.11
in water | 1.1e-05 | – | 2.4e-05 | – | 4.5e-05 | 5.7e-05 | 6.9e-05
